Tests used:
Type in all cases: cell-based, C57BL/6 mice
[1] = system: IL-6 mRNA; assay: IL-6 mRNA expression by qPCR in LPS-stimulated peritoneal macrophages; settings: test agent 20 μM, LPS (1 g/mL), vs absence of CPZ (FIG. 10)
Protocol: (§1) Peritoneal macrophages from C57BL/6 mice (aged 6 to 8 weeks) were stimulated with LPS ([…]) in the presence or absence of a test agent (20 μM). The relative expression levels of mRNAs of Arid5A, IL-6, and TNF-α were determined in the stimulated peritoneal macrophages by quantitative PCR (qPCR). The expression level of Arid5A mRNA was determined 2 hours after LPS stimulation. The expression levels of IL-6 mRNA and TNF-α mRNA were determined 2 hours, 6 hours, 12 hours, and 24 hours after LPS stimulation. FIGS. 9 to 11 show the results when chlorpromazine (CPZ) was used as a test agent.

[2] = system: Arid5A mRNA; assay: Arid5A mRNA expression by qPCR in LPS-stimulated peritoneal macrophages; settings: test agent 20 μM, LPS (1 g/mL), 2 hours after LPS stimulation, vs absence of CPZ (FIG. 9)
Protocol: as §1

[3] = system: TNF-α mRNA; assay: TNF-α mRNA expression by qPCR in LPS-stimulated peritoneal macrophages; settings: test agent 20 μM, LPS (1 g/mL), determined 2, 6, 12 and 24 hours after LPS stimulation (FIG. 11)
Protocol: as §1

Q: What does the source list for `CN(C)CCCN1c2ccccc2Sc2ccc(Cl)cc21` [CPZ, chlorpromazine]?
A: expression of IL-6 mRNA ([1]; 2 hours after LPS stimulation): markedly suppressed; expression of IL-6 mRNA ([1]; 6 hours after LPS stimulation): markedly suppressed; expression of Arid5A mRNA [2]: markedly suppressed; expression of TNF-α mRNA [3]: no effect

Source: US11279931B2, “Therapeutic agent for a lung disease and/or method for screening for the same” (Chugai Seiyaku Kabushiki Kaisha, priority 2015, dated 2022)
